In one data set the test system is HBV. The experiment in a line: Anti HBV activity in HepG2.2.15.7 cells (supernatant HBV DNA, real-time qPCR). The data set is classed as cell-based, Hepatitis B virus. As to conditions: for EC50: Hepatitis B virus, read-out: EC50 (inhibition of the HBV viral DNA release). The procedure:
(§1) HepG2.2.15.7 cells were seeded at 1 × 10^4 cells per well in a collagen coated 96-well plate (Corning, Corning, NY, USA) and incubated at 37 °C for 24 h before treatment. The tested compound was added to the culture medium at the indicated concentrations. The culture medium was exchanged every 3 days for fresh medium containing the compound. The treated cells and culture supernatants were harvested 9 days post-treatment and were subjected to MTS assay and estimation of HBV DNA, respectively. The culture supernatant was mixed with an equal volume of Sidestep lysis and stabilization buffer (Agilent Technologies, Santa Clara, CA, USA). The viral DNA included in the mixture was estimated by real-time quantitative PCR using the THUNDERBIRD Probe qPCR Mix (TOYOBO, Osaka, Japan). The forward and reverse primers targeting HBV surface region are 5′-[…]-3′ and 5′-[…]-3′, respectively. The fluorogenic probe was 5′-FAM-[…]-TAMRA-3 [40].
(In general: Quantitative PCR measures a nucleic acid by following its amplification.)

Data set [1] can be described thus: Cytotoxicity in HepG2.2.15.7 cells (MTS assay). The data set is classed as cell-based. As to conditions: human, 9 days post-treatment, read-out: CC50 (reduction of cell viability). The procedure: as §1
In general terms: Formazan colour is commonly taken as a measure of viable cells.

The next data set concerns HBV core promoter. In words: Cell-based HBV core promoter assay (luciferase reporter, Huh7 GL4.18 CURS_BC_AeUS cells). As to conditions: Hepatitis B virus, Huh-7, 48 h incubation. The procedure:
Huh7 GL4.18 CURS_BC_AeUS cells were seeded at 2 × 10^4 cells per well in a 48-well plate and then treated with 25 µg/mL each extracts 24 h after seeding cells. The treated cells were harvested 48 h post-treatment and then lysed with Cell culture lysis buffer (Promega, Madison, WI, USA). Luciferase activity was measured by using Luciferase assay systems (Promega, Madison, WI, USA). The resulting luminescence was detected as described above.
(A reporter such as luciferase makes a cellular process visible.)

A further data set deals with Tie2 kinase. Also noted: method as in PMID 15653332. Particulars: cited from earlier work.
Another data set has as its system MCF-7 cells. Also noted: method as in PMID 18198840. Particulars: MCF-7 cells (a breast cancer cell line); cited from earlier work.
The mark [2] stands for this setting: 216 h, HepG2.2.15.7 cells, 9 days post-treatment, supernatant HBV DNA.

The structures appear in SMILES notation. Like-named read-outs stand apart in the source and are kept apart here.

One may read the EC50 as the concentration needed to bring the measured effect to its halfway point. As a reminder, the CC50 is the concentration giving 50% cytotoxicity. What is called IC50 is the concentration at which inhibition is half-maximal. Low readings indicate greater potency in that assay, high ones weaker potency in that assay. Regarding `Oc1cc(Br)cc(Br)c1Oc1ccc(Br)cc1Br` [Compound 1, 3,5-dibromo-2-(2,4-dibromophenoxy)-phenol], the “Selectivity Index (CC50/EC50)” value in the data set on HBV (HepG2.2.15.7 cells) is on record as 18.2. In addition, in the data set with HBV (setting [2]), the EC50 stood at 230 ± 70 nM. In addition, the CC50 at 9 days in data set [1] came to 4190 ± 120 nM. The molecule further came in with an IC50 in the data set with HBV core promoter of 2300 nM. For the same molecule, the “Effect on Tie2 kinase activity” value in the data set on Tie2 kinase was “suppressed activity of Tie2 kinase”. In the data set on MCF-7 cells, the “Effect on cell cycle” value is listed as “induces G1 phase cell cycle arrest”.
Take `Oc1cc(Br)c(Br)c(Br)c1Oc1ccc(Br)cc1Br` [Compound 2, 3,4,5-tribromo-2-(2,4-dibromophenoxy)-phenol]: the “Selectivity Index (CC50/EC50)” value in the data set with HBV (HepG2.2.15.7 cells) came out at 12.8. Besides, in the data set on HBV (setting [2]), the EC50 amounted to 800 ± 340 nM. In addition, the half-maximal cytotoxic concentration (CC50) at 9 days in data set [1] is 10300 ± 3690 nM. Also, the IC50 with HBV core promoter amounted to 4900 nM.
Consider `C=C1[C@H](CO)[C@@H](O)C[C@@H]1n1cnc2c(=O)[nH]c(N)nc21` [Entecavir, reference compound], for which the “Selectivity Index (CC50/EC50)” value in the data set with HBV (HepG2.2.15.7 cells) is above 4761. Also, in the data set with HBV (HepG2.2.15.7, 216 h), the EC50 stood at 21 ± 3 nM. Also, in data set [1], the half-maximal cytotoxic concentration (CC50) at 9 days is above 100000 nM.
